Test results: patent US20160030406A1, “CORRECTORS ACTING THROUGH MSD1 OF CFTR PROTEIN” (VERTEX PHARMACEUTICALS INCORPORATED, priority 2013, published 2016)

What was measured:
ΔF508-CFTR = biological target: T1, ΔF508-CFTR (Homo sapiens, UniProt P13569, DEL508-508); details: bronchial epithelial cells from CF subjects; cited from earlier work
T1 construct: endogenous in cells; host or cells: primary human bronchial epithelial cells from CF subjects homozygous for ΔF508

[1] = biological target: T2, CFTR fragments (CFTR^370, CFTR^373, CFTR^375, CFTR^380, CFTR^430, CFTR^530, CFTR^653) (Homo sapiens, UniProt P13569); assay: CFTR fragment steady-state accumulation by immunoblot in HEK293 cells; type: cell-based; details: HEK293, 4 hours bortezomib
T2 construct: expressed in transfected cells; host or cells: HEK293, transient transfection
Description: Steady-state levels of CFTR and its mutants are determined by western blot analysis. HEK293 cells are transiently transfected with the indicated plasmids (Grove, et al., 2011, Mol Biol Cell, 22: 301-14). The transfected cells are allowed to recover for approximately 18 hrs before addition of DMEM and then supplemented with lumacaftor or DMSO (control). The cells are incubated with the correctors for 24 hrs before isolating the cells for western blot analysis. The harvested cells are diluted with 2×SDS sample buffer (100 mM Tris-HCl (pH 6.8)/4% SDS/0.05% Bromophenol Blue/20% glycerol), sonicated, and heated at 37° C. prior to resolving the proteins on SDS-PAGE gels. The proteins are transferred to nitrocellulose membranes and the membranes are probed with the designated antibodies. β-tubulin is used to indicate loading controls.
To localize the region in CFTR on which lumacaftor acts to correct ΔF508-CFTR misfolding, immunoblot and pulse-chase studies are used to monitor the impact of the drug on the accumulation of a set of CFTR and ΔF508-CFTR fragments that expose surfaces present on CFTR folding intermediates.
A set of CFTR fragments with domain boundaries that permitted them to accumulate in unstable or stable states are expressed in HEK293 cells, and the effect of 5 μM lumacaftor on the accumulation of different fragments is determined. As a point of reference, the impact of the proteasome inhibitor bortezomib on CFTR fragment accumulation is also measured.
Cells are treated for 4 hours with bortezomib or 18 hours at 37° C. with lumacaftor. The amount of CFTR fragment accumulation is determined by immunoblot.
To evaluate whether the 362-380 helix is critical for MSD1 folding, the accumulation and sensitivity to lumacaftor of CFTR^373, CFTR^375, and CFTR^380 is analyzed. CFTR^373 accumulation is similar to that of CFTR^370 and insensitive to lumacaftor. CFTR^375 accumulation is similar to CFTR^370, but its amounts are increased around 6-fold by lumacaftor. […] Maximal accumulation of CFTR^380 occurs at 5 μM lumacaftor.

T1 sequence (P13569 with tags, fused parts or gaps DEL508-508): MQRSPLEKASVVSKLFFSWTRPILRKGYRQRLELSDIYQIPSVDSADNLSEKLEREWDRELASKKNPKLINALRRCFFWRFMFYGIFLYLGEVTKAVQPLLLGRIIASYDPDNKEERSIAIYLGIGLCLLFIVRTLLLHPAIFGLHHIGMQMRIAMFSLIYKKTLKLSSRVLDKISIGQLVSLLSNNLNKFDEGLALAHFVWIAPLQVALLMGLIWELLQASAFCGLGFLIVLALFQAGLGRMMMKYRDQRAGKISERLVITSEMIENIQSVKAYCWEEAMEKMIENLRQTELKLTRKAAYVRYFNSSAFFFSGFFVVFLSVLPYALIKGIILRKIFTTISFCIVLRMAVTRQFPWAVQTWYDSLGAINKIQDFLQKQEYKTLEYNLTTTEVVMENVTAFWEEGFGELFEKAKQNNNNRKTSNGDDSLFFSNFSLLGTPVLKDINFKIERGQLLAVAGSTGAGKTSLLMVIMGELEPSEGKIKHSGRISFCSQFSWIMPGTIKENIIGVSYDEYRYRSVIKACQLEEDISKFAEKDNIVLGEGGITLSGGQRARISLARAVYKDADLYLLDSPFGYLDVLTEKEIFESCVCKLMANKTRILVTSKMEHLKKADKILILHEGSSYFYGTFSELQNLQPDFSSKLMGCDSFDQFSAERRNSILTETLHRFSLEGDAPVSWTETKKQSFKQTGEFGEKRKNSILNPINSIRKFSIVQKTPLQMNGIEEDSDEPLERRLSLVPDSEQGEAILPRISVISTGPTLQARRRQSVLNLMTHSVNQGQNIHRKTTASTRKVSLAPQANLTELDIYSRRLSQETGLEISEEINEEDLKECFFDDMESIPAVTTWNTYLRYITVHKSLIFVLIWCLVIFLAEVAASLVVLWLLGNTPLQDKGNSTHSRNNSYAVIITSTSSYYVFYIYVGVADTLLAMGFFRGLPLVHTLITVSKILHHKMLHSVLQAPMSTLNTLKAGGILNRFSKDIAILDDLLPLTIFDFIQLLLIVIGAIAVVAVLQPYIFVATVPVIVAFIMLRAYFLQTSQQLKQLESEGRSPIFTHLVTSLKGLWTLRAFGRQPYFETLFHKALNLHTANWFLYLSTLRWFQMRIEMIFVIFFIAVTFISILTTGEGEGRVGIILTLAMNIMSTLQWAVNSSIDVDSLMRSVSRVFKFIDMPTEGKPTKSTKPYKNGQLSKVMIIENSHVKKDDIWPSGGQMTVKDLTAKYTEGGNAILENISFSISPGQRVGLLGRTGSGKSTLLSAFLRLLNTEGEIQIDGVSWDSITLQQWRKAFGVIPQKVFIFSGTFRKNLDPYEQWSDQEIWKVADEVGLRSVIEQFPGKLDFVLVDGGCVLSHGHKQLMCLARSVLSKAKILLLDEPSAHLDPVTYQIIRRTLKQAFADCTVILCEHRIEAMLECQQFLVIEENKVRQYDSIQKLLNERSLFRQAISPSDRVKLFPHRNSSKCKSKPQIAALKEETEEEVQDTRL

accumulation of CFTR^430, sensitivity to proteasome inhibition [1]	accumulation of CFTR^653, sensitivity to proteasome inhibition [1]	increase in accumulation of CFTR^370 [1] [fold]	increase in accumulation of CFTR^530 [1] [fold]	Structure (SMILES)	ΔF508-CFTR function (ΔF508-CFTR)
				COc1ccc(Cl)cc1Nc1nc(-c2sc(NC(=O)c3ccccc3)nc2C)cs1 [Corr-4a]	partially restored
relatively insensitive	relatively insensitive	10	10	CC(C)C[C@H](NC(=O)[C@H](Cc1ccccc1)NC(=O)c1cnccn1)B(O)O [bortezomib]	
